This is an account of results in patent publication EP4755875A1, “PHTHALAZINONE COMPOUND AND PREPARATION METHOD THEREFOR, PHARMACEUTICAL COMPOSITION, AND USE” (Beijing Wehand-Bio Pharmaceutical Co., Ltd, priority 2023, dated 2025).

Molecules are shown by their SMILES.

The subject of assay [1] is PC-12 cells. Put plainly: In vitro neuroprotective activity, hydrogen peroxide injury model (CCK-8 viability). It counts as cell-based. Particulars: Rattus norvegicus; compound 10 µM; PC-12 cells injured with hydrogen peroxide (120 µM) for 2 h; 24-hour incubation; relative to model group; read-out: Improved Viability (%). On the procedure: (§1) The in vitro neuroprotective models for evaluating the test compound were hydrogen peroxide injury and glutamate injury models. The PC-12 cells were seeded in a 96-well plate at a density of 1.5 × 10^4 cells/mL, 100 µL per well. The experiment included a blank group, a model group, and drug treatment groups. The hydrogen peroxide injury and glutamate injury models were stimulated for 2 h with a final concentration of 120 µM hydrogen peroxide or 8 mM glutamate, respectively. Subsequently, the cells in the blank group were cultured in complete medium, whereas the cells in the drug treatment groups were cultured by adding 10 µM test compound. After 24-hour incubation for all groups, 10 µL of CCK-8 was added to each well. 60 min later, the absorbance at 490 nm was measured using a microplate reader. The viability was calculated. Improved Viability = (Viability in Drug Treatment Group - Viability in Model Group)/(Viability in Model Group). Table 1 Protective Effects of Phthalazinone Compounds on Nerve Cell Injury Induced by Hydrogen Peroxide (120 µM)

Assay [2] relates to PC-12 cells. Description: In vitro neuroprotective activity, glutamate injury model (CCK-8 viability). It counts as cell-based. Conditions: Rattus norvegicus; compound 10 µM; PC-12 cells injured with glutamate (8 mM) for 2 h; 24-hour incubation; relative to model group; read-out: Improved Viability (%). Here is the method: as §1
Assay [3] deals with rats with ischemic stroke. Put plainly: In vivo anti-ischemic stroke activity, middle cerebral artery occlusion model. Also on record: species or system SD rats.

For the compound `CC1=NN(c2ccccc2)C(=O)C1` [Edaravone, reference compound], the results for the activation at 10 µM with PC-12 cells [1] and in the assay with PC-12 cells [2] were 11.3 ± 2.15% and 3.14 ± 0.85%, respectively.
`CCCCc1nn(CCC)c(=O)c2c(OCCC)cccc12` [Compound 12, 2-Propyl-4-butyl-8-propoxy-phthalazin-1(2H)-one]: the activation at 10 µM in the assay with PC-12 cells [1] stood at 12.9 ± 6.03%; in the assay on PC-12 cells [2] it was 5.11 ± 2.33%.
For `CCCCc1nn(CC2CCCCC2)c(=O)c2c(OCCC)cccc12` [Compound 14, 2-(Cyclohexylmethyl)-4-butyl-8-propoxy-phthalazin-1(2H)-one], in that order: 6.68 ± 3.51% and 3.16 ± 3.54%.
For `CCCCc1n[nH]c(=O)c2c(OCCC)cccc12` [Compound 9, 4-Butyl-8-propoxy-phthalazin-1(2H)-one] the same measures were 60.2 ± 5.87% and 7.48 ± 3.07%.
As to `CCCCc1nn(Cc2ccncc2)c(=O)c2c(OCCC)cccc12` [Compound 10, 2-(Pyridin-4-methylene)-4-butyl-8-propoxy-phthalazin-1(2H)-one], the activation at 10 µM in the assay with PC-12 cells [1] was found to be 1.93 ± 2.37%.
`CCCCc1nn(CC2CC2)c(=O)c2c(OCCC)cccc12` [Compound 13, 2-(Cyclopropylmethyl)-4-butyl-8-propoxy-phthalazin-1(2H)-one]: the values for the activation at 10 µM in the assay on PC-12 cells [1] and with PC-12 cells [2] were 3.14 ± 1.45% and 47.8 ± 8.14%, respectively.
As to `CCCCc1nn(Cc2ccc(F)cc2)c(=O)c2c(OCC3CC3)cccc12` [Compound 17, 2-(4-Fluorobenzyl)-4-butyl-8-(cyclopropylmethoxy)-phthalazin-1(2H)-one], the activation at 10 µM in the assay with PC-12 cells [1] is 33 ± 2.37%; in the assay on PC-12 cells [2], 12.2 ± 2.57%. Moreover, the “survival rate of rats with ischemia-reperfusion injury” value in assay [3] (intragastric 10, 30 and 60 mg/kg, once daily for 7 days, FIG. 1) is “effectively increase”. In assay [3] (intragastric 10, 30 and 60 mg/kg, once daily for 7 days, FIG. 2), the “body weight of rats” value is listed as “reverse the decrease trend”. For the same compound, the “volume of cerebral infarction” value in assay [3] (intragastric 10, 30 and 60 mg/kg, once daily for 7 days, TTC staining, FIG. 3) is reported as “reduce the volume of cerebral infarction in a dose-dependent manner”. Further, the “effects compared with positive control drug butylphthalide (200 mg/kg)” value in assay [3] (survival rate, body weight, infarction volume, Compound 17 at 10, 30, 60 mg/kg by gavage) is “superior”.
`CCCCc1nn(CC)c(=O)c2c(OCc3ccc4ccccc4c3)cccc12` [Compound 20, 2-Ethyl-4-butyl-8-(naphthalene-2-methoxy)-phthalazin-1(2H)-one]: the activation at 10 µM stood at 34 ± 3.92% in the assay with PC-12 cells [1] and 8.77 ± 3.01% with PC-12 cells [2].
For `CCCCc1nn(Cc2ccccc2)c(=O)c2c(OCC3CCCCC3)cccc12` [Compound 8, 2-Benzyl-4-butyl-8-(cyclohexylmethoxy)-phthalazin-1(2H)-one], in that order: 12.1 ± 3.25% and 7.99 ± 2.98%.
For `CCCCc1nn(CC)c(=O)c2c(OC)cccc12` [Compound 2, 2-Ethyl-4-butyl-8-methoxy-phthalazin-1(2H)-one] the same measures were 35.8 ± 3.55% and 0.04 ± 1.05%.
Consider `CCCCc1nn(CC2CC2)c(=O)c2c(OC)cccc12` [Compound 4, 2-(Cyclopropylmethyl)-4-butyl-8-methoxy-phthalazin-1(2H)-one], for which the activation at 10 µM in the assay with PC-12 cells [1] turned out to be 23.4 ± 1.83%; in the assay with PC-12 cells [2], 9.75 ± 3.22%.
Turning to `CCCCc1nn(Cc2ccc3ccccc3c2)c(=O)c2c(OCCC)cccc12` [Compound 15, 2-(Naphthylmethyl)-4-butyl-8-propoxy-phthalazin-1(2H)-one], the activation at 10 µM in the assay with PC-12 cells [1] amounted to 1.59 ± 1.13%.
With `CCCCc1nn(CC)c(=O)c2c(OCC3CCCCC3)cccc12` [Compound 7, 2-Ethyl-4-butyl-8-(cyclohexylmethoxy)-phthalazin-1(2H)-one], the activation at 10 µM in the assay with PC-12 cells [1] came to 0.81 ± 0.37%.
Regarding `CCCCc1nn(Cc2ccc(F)cc2)c(=O)c2c(OCCC)cccc12` [Compound 11, 2-(4-Fluorobenzyl)-4-butyl-8-propoxy-phthalazin-1(2H)-one], the activation at 10 µM with PC-12 cells [1] is 96.8 ± 8.64%; in the assay on PC-12 cells [2] it was 32.7 ± 6.21%.
Consider `CCCCc1nn(CC2CCCCC2)c(=O)c2c(OC)cccc12` [Compound 5], for which the activation at 10 µM was 61.9 ± 6.53% in the assay with PC-12 cells [1] and 14 ± 6.21% in the assay on PC-12 cells [2].
